{"source": "patent US20090082713A1", "about": "“METHOD OF ENHANCING IONTOPHORETIC DELIVERY OF A PEPTIDE” (priority 2007, published 2009)", "key": {"[1]": {"assay": "In vivo iontophoretic delivery of salmon calcitonin across skin microporated with maltose microneedles, serum SCT by ELISA", "parameters": "species or system hairless rat", "conditions": "for increase in concentration compared to delivery with microneedles alone: p<0.05; for increase in concentration compared to delivery with microneedles alone / Cmax / total amount of SCT delivered: hairless rat; for Cmax: hairless, rat, serum, topical or ocular, 350 µg, read-out: maximum concentration of SCT in the serum; for total amount of SCT delivered: calculated by WinNonlin", "experimental": "• Purpose: To determine the effect of iontophoresis and its combination with microneedles on the in vivo delivery of salmon calcitonin (SCT) as a model peptide. • Methods: Microneedles, iontophoresis and the combination were investigated for their effect on the transdermal delivery of SCT in vivo using the hairless rat. SCT (350 μl of a 1 mg/ml solution in 50 mM citrate buffer, pH 4.0) was placed in a cartridge designed for iontophoresis. Maltose microneedles (500 micron, Texmac Inc.), stacked in three layers, were used to porate the skin prior to the application of the drug with or without iontophoresis. […] Transport of drug across the skin was assessed by collecting blood samples at regular intervals via the tail vein which were analyzed for serum SCT using ELISA. • Results: The maximum concentrations of SCT in the serum were 41.45 pg/ml, 605.21 pg/ml, and 2374.06 pg/ml under microneedles alone, 1 hr iontophoresis alone, and the combination, respectively. When compared to the delivery with microneedles alone, the increase in concentration with iontophoresis alone was 15-fold (p<0.05) and with the combination of microneedles the increase was 57-fold (p<0.05). The total amount of SCT delivered by iontophoresis and its combination with microneedles in the hairless rat was 648.67 ng/kg and 3075.96 ng/kg, respectively, as calculated by WinNonlin. • Conclusion: Iontophoresis or a disruption of the skin barrier by microneedles enabled the transdermal delivery of SCT."}, "[2]": {"assay": "In vivo delivery of salmon calcitonin using iontophoresis in combination with microporation using titanium needle arrays", "parameters": "species or system hairless rat", "conditions": "titanium needle array microporation in combination with iontophoresis; 0.5 minutes after administration; FIG. 1C"}}, "note": "Where two headings read alike, the source gives them in different places.", "data": [{"smiles": "CC(C)C[C@H](NC(=O)[C@H](CCCCN)NC(=O)CNC(=O)[C@H](CC(C)C)NC(=O)[C@@H](NC(=O)[C@@H]1CSSC[C@H](N)C(=O)N[C@@H](CO)C(=O)N[C@@H](CC(N)=O)C(=O)N[C@@H](CC(C)C)C(=O)N[C@@H](CO)C(=O)N[C@@H]([C@@H](C)O)C(=O)N1)C(C)C)C(=O)N[C@@H](CO)C(=O)N[C@@H](CCC(N)=O)C(=O)N[C@@H](CCC(=O)O)C(=O)N[C@@H](CC(C)C)C(=O)N[C@@H](Cc1c[nH]cn1)C(=O)N[C@@H](CCCCN)C(=O)N[C@@H](CC(C)C)C(=O)N[C@@H](CCC(N)=O)C(=O)N[C@H](C(=O)N[C@@H](Cc1ccc(O)cc1)C(=O)N1CCC[C@H]1C(=O)N[C@@H](CCCNC(=N)N)C(=O)N[C@H](C(=O)N[C@@H](CC(N)=O)C(=O)N[C@H](C(=O)NCC(=O)N[C@@H](CO)C(=O)NCC(=O)N[C@H](C(=O)N1CCC[C@H]1C(N)=O)[C@@H](C)O)[C@@H](C)O)[C@@H](C)O)[C@@H](C)O", "note": "[SCT, salmon calcitonin]", "values": [{"measurement": "increase in concentration compared to delivery with microneedles alone", "setting": "[1]; combination of iontophoresis and microneedles vs microneedles alone", "value": 57, "unit": "fold"}, {"measurement": "Cmax", "setting": "[1]; pH 4, transdermal, 1 hr iontophoresis alone (0.2 mA/cm^2), 350 μl of 1 mg/ml SCT, pH 4.0", "value": 0.605, "unit": "ng/mL"}, {"measurement": "Cmax", "setting": "[1]; pH 4, transdermal, maltose microneedles alone, 350 μl of 1 mg/ml SCT in 50 mM citrate buffer pH 4.0", "value": 0.0415, "unit": "ng/mL"}, {"measurement": "Cmax", "setting": "[1]; transdermal, combination of maltose microneedles and 1 hr iontophoresis (0.2 mA/cm^2)", "value": 2.37, "unit": "ng/mL"}, {"measurement": "increase in concentration compared to delivery with microneedles alone", "setting": "[1]; iontophoresis alone vs microneedles alone", "value": 15, "unit": "fold"}, {"measurement": "total amount of SCT delivered", "setting": "[1]; iontophoresis alone", "value": 648.67, "unit": "ng/kg"}, {"measurement": "total amount of SCT delivered", "setting": "[1]; iontophoresis in combination with microneedles", "value": 3075.96, "unit": "ng/kg"}, {"measurement": "increase in amount of protein that permeated the skin compared to iontophoresis alone", "setting": "[1]; microneedle treatment combined with iontophoresis vs iontophoresis alone, hairless rat model", "value": "about four"}, {"measurement": "plasma concentration of SCT relative to microporation or iontophoresis alone", "setting": "[2]", "value": "about 10 fold"}]}]}
